The data set is described as follows: In vivo pharmacokinetic study after intragastric administration in rats. Conditions: both sexes, Wistar, rat, po, 25 mg·kg^−1 of ABZ. How it is done:
Eighteen Wistar rats were selected and divided into three groups, with half of them being male and the other half being female. Each group was given a dose of 25 mg·kg^−1 of ABZ by intragastric administration. Blood samples of 200–500 μL were collected from each rat at 0.5, 1, 2, 4, 6, 8, 10, 12, and 24 h after administration and were placed into pre-prepared anticoagulant centrifuge tubes. The samples were centrifuged at 13,000 rpm for 10 min, and the upper plasma was collected and stored at −80 °C in an ultra-low temperature refrigerator.
For sample preparation, plasma was thawed, and 50 μL of plasma was mixed with 150 μL of methanol. The mixture was vortexed for 1 min and then centrifuged at 13,000 rpm for 10 min. The supernatant (135 μL) was collected, followed by the addition of 200 ng·mL^−1 mebendazole as the internal standard. The sample was vortexed for 1 min and then filtered through a microporous membrane. The drug content was quantified using UHPLC-MS/MS (UltiMate 3000 and Q-Exactive Orbitrap MS, Thermo Scientific, USA). Pharmacokinetic parameters were calculated using DAS 2.0 software.
Chromatographic conditions: An Accucore aQ UHPLC column (150 mm × 2.1 mm × 2.5 μm) was used. The column temperature was maintained at 40 ± 1 °C, and the sample tray was kept at 15 ± 0.5 °C. The mobile phase consisted of acetonitrile (A) and water with 0.1% formic acid (B). The elution gradient was as follows: 0–5 min, 95% B. The injection volume was 1 μL, and the flow rate was set to 0.3 mL·min^−1.
Mass spectrometry conditions: Electrospray ionization (ESI) was used with high-purity nitrogen (purity > 99.9%) as the carrier gas. The sheath gas flow rate was 35 Arb, and the auxiliary gas flow rate was 10 Arb. The capillary temperature was set to 320 °C, with the ion lens (S-lens RF level) voltage frequency at 60. The spray voltage was 3.0 kV (positive mode), and full MS positive switching scanning mode was employed, with a scanning range of 150–800.

Usually half-life stands for the time needed for the level to fall by half in the phase considered. Low readings indicate rapid decline, high ones slow decline. The term AUC(0-inf) denotes the area under the concentration-time curve extrapolated to infinity. As usually defined, the AUC(0-t) is the area under the concentration-time curve up to a stated or last time point. A high value points to high exposure. For orientation: Cmax means the maximum level reached in the sampled fluid or tissue. In general, Tmax refers to the time at which the peak concentration occurs.

For `CCCSc1ccc2nc(NC(=O)OC)[nH]c2c1` [ABZ, albendazole], under “in vivo, n = 6”, the half-life was 2 ± 0.38 h. Also, where the note is “plasma, n = 6”, the area under the curve AUC(0-inf) was found to be 220 ± 25.3 ng·h/mL, the AUC(0-t) came out at 216 ± 27.6 ng·h/mL, the peak level (Cmax) was 34.1 ± 5.19 ng/mL and the Tmax turned out to be 2 ± 0.38 h. In addition, the MRT last (plasma, n = 6, read-out: MRT0–t) was 6.16 ± 0.36 h. The MRT inf (plasma, n = 6, read-out: MRT0–∞) worked out at 6.55 ± 0.37 h.

For the origin of these results see publication PMC12195660, “Preparation and Evaluation of an Oral Administration System of Albendazole-Metal-Organic Framework Based on Dual Response to pH and Enzymes” (Pharmaceuticals, 2025).
